Laboratory results: ChEMBL document CHEMBL1131653, “Syntheses of D- and L-myo-inositol 1,2,4,5-tetrakisphosphate and stereoselectivity of the I(1,4,5)P3 receptor binding” (Bioorg Med Chem Lett, 1998)

Target: Inositol 1,4,5-trisphosphate-gated calcium channel ITPR3 (Bos taurus, UniProt Q8WN95)
Assay: Binding affinity towards Inositol 1,4,5-trisphosphate receptor was evaluated by the standard competitive binding assay using 1.25 nM [3H]D-I(1,4,5)P3 binding protein, prepared from bovine adrenal cortex
Assay type: tissue-based

Sequence of Inositol 1,4,5-trisphosphate-gated calcium channel ITPR3 (Q8WN95 whole entry): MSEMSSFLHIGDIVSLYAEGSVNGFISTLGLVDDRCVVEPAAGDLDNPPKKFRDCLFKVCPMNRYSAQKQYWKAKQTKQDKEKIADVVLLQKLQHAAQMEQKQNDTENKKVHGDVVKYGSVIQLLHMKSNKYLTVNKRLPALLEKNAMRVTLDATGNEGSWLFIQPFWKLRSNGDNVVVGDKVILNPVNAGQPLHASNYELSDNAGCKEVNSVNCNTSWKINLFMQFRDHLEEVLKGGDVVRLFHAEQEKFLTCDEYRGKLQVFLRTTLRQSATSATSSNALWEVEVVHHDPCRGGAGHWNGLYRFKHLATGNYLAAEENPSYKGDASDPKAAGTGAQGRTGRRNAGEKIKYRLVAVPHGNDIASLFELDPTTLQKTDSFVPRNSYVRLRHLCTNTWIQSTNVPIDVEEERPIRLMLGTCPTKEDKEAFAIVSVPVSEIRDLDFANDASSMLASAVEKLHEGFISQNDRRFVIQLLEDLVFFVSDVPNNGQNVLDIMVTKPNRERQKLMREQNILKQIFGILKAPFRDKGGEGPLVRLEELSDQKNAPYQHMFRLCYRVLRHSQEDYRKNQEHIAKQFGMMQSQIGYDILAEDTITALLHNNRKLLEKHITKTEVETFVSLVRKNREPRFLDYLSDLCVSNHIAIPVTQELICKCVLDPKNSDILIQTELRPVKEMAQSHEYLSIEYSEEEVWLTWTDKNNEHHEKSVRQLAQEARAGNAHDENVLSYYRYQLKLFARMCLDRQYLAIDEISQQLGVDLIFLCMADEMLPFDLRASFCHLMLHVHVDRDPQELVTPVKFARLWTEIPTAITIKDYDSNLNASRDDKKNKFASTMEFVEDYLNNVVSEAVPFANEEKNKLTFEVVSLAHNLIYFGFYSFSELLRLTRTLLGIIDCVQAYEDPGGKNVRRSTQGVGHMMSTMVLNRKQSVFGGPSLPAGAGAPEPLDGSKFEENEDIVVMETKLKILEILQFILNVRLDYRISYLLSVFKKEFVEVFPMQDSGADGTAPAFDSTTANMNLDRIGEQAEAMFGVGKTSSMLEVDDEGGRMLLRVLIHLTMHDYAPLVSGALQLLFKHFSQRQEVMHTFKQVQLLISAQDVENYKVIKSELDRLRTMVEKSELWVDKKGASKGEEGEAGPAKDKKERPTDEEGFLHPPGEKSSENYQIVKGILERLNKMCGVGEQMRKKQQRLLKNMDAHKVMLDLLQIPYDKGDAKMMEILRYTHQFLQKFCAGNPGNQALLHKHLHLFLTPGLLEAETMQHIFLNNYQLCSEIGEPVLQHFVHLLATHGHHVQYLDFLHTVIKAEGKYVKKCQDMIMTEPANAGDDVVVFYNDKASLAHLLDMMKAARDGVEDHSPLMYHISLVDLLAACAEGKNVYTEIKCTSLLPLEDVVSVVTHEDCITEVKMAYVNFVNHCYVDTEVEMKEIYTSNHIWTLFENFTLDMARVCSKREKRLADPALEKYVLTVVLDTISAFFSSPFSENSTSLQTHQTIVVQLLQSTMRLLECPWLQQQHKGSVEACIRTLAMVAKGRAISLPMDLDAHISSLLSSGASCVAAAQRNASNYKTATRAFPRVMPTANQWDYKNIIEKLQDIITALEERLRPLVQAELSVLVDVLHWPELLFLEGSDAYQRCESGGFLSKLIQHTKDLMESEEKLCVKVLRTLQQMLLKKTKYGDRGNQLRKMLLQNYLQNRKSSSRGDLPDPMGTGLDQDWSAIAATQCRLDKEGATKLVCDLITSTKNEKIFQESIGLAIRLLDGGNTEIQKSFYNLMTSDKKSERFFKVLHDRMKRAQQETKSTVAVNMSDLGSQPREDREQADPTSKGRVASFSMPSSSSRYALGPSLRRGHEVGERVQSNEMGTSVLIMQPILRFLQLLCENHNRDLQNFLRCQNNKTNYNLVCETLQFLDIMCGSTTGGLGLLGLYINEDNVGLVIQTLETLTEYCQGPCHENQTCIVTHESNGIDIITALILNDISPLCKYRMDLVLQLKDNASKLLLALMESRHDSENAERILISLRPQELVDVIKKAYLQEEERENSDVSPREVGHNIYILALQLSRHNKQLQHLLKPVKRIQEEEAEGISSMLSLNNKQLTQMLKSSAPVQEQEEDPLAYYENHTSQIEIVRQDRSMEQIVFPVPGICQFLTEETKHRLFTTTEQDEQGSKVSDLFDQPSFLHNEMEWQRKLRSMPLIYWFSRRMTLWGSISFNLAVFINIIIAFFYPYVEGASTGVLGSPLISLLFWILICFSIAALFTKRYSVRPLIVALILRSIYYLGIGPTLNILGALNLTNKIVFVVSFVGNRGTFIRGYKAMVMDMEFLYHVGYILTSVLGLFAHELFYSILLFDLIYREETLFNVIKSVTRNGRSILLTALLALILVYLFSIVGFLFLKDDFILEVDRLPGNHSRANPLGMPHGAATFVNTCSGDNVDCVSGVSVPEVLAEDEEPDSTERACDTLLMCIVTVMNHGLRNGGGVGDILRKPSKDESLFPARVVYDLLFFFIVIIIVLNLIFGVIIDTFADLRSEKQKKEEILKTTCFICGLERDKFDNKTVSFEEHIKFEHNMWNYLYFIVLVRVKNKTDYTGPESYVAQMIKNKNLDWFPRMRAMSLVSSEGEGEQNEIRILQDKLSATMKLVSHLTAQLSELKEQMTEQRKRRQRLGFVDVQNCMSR

| IC50 [nM] | Compound |
| --- | --- |
| 598 | O=P(O)(O)O[C@@H]1[C@@H](O)[C@H](OP(=O)(O)O)[C@@H](OP(=O)(O)O)[C@H](O)[C@@H]1OP(=O)(O)O |
| 13.4 | O=P(O)(O)O[C@@H]1[C@@H](O)[C@@H](OP(=O)(O)O)[C@@H](OP(=O)(O)O)[C@H](O)[C@H]1OP(=O)(O)O |
